# Test results from patent publication US6517812B1, “Inhibition of psychostimulant-induced and nicotine-induced craving” (The General Hospital Corporation, priority 1997, dated 2003).
# Legend:
# [1] = test system: Male Harlan Sprague-Dawley rats; experiment: Arterial blood pressure and heart rate monitoring in rat
# Experimental: All procedures were carried out in accordance with NIH guidelines. Male Harlan Sprague-Dawley rats (225-300 gm) were anesthetized briefly with 1.5% halothane in oxygen for insertion of left femoral arterial and venous cannulae and placement of tracheostomy for mechanical ventilation (using a 16 gauge intravenous catheter, Inste-W, Becton Dickinson, Sandy, Utah). All wounds were infiltrated with 1% lidocaine before incision. Following surgery, the inspired halothane concentration was reduced to 0.7% and rats were paralyzed with 2 mg/kg intravenous pancuronium, followed by a continuous intravenous infusion of pancuronium at 2 mg/kg/hr. Pancuronium was dissolved in normal saline administered at 5 ml/kg/hr. Rats were mechanically ventilated (in a small animal volume controlled ventilator, Harvard Apparatus, Inc., South Natick, Mass.) with a 80/20 air/oxygen mixture, an inspiratory to expiratory ratio of 1:1, and an initial tidal volume of 3.0 ml at a rate of 40 breaths per minute. Ventilation parameters were adjusted to maintain normal arterial blood gases (pH=7.40±0.01, PaCO2=40±2, PaO2=145±10). Arterial blood samples (150 μl) withdrawn from cannula were analyzed for arterial partial pressures of oxygen, carbon dioxide, and pH (Ciba-Coming Model 1304) before administration of drugs, and at the end of each experiment before sacrifice, to ensure animal stability. Arterial blood pressure and rectal temperature were monitored throughout the experiment. […] Rats torsos were wrapped in two heating blankets (Gaymar, Orchid Park, N.Y.) circulating warm water to maintain core temperature at 37-38° C. […]
# Regional cortical blood flow was determined by LDF (Perimed, PF2B, Stockholm, Sweden) as described previously (Ayata, et al., 1996, J. Cereb. Blood Flow Metab., 16:539-541). […] All data were collected, stored, and analyzed using MacLab/8 data acquisition and analysis system (ADInstruments, Mountain View, Calif.). Arterial pressure was continuously monitored and the data stored; heart rate was calculated from arterial pressure pulses by the data acquisition software. […]
# rat frontal cortex = experiment: BOLD fMRI in drug-naive rat after IV cocaine; format: in vivo
# Experimental: All procedures were carried out in accordance with NIH guidelines. Male Harlan Sprague-Dawley rats (225-300 gm) were anesthetized briefly with 1.5% halothane in oxygen for insertion of left femoral arterial and venous cannulae and placement of tracheostomy for mechanical ventilation (using a 16 gauge intravenous catheter, Inste-W, Becton Dickinson, Sandy, Utah). All wounds were infiltrated with 1% lidocaine before incision. Following surgery, the inspired halothane concentration was reduced to 0.7% and rats were paralyzed with 2 mg/kg intravenous pancuronium, followed by a continuous intravenous infusion of pancuronium at 2 mg/kg/hr. Pancuronium was dissolved in normal saline administered at 5 ml/kg/hr. Rats were mechanically ventilated (in a small animal volume controlled ventilator, Harvard Apparatus, Inc., South Natick, Mass.) with a 80/20 air/oxygen mixture, an inspiratory to expiratory ratio of 1:1, and an initial tidal volume of 3.0 ml at a rate of 40 breaths per minute. […] Arterial blood samples (150 μl) withdrawn from cannula were analyzed for arterial partial pressures of oxygen, carbon dioxide, and pH (Ciba-Coming Model 1304) before administration of drugs, and at the end of each experiment before sacrifice, to ensure animal stability. Arterial blood pressure and rectal temperature were monitored throughout the experiment. […]
smiles,measurement,setting,value
COC(=O)[C@H]1[C@@H](OC(=O)c2ccccc2)C[C@@H]2CC[C@H]1N2C [cocaine],adverse cardiovascular response,[1]; cocaine doses above 5 mg/kg IV,profound hypotension and cardiac arrhythmia
same,transient increase in arterial blood pressure,[1]; cocaine infusion 0.5 mg/kg,5-10 mm Hg
same,time of return of BOLD contrast to baseline,"rat frontal cortex; cocaine 0.5 mg/kg IV, after infusion",20 min
same,maximal R2 (BOLD contrast),rat frontal cortex; cocaine 1 mg/kg IV,2.5 ± 0.6 s⁻¹
